We go through 14 compounds from patent US11236129B2, “IL-17A binding peptides and medical uses thereof” (Dompe' Farmaceutici S.P.A., priority 2018, dated 2022).

The target in the experiment is IL-17RA/IL17RC dimerization induced by IL-17A (Homo sapiens, UniProt Q16552). The experiment in a line: IL-17RA/IL17RC dimerization assay in response to IL-17A (PathHunter Cytokine Receptor Assay). The class given is cell-based. The conditions noted are these: IL-17A at EC80; read-out: IC50 in IL-17RA/IL7RC dimerization assay. The protocol:
The peptides of Table 7 were tested for their ability to inhibit the binding of IL-17A to its receptor and the subsequent interaction of IL-17RA and IL17RC.
Interleukin receptor RA and RC dimerization assay (DiscoverX) was used to measure the interaction of the receptor chains IL-17RA and IL17RC upon activation by IL-17A in the absence or presence of the peptides of Table 7.
In the PathHunter® Cytokine Receptor Assay, one cytokine receptor chain is tagged with a small peptide epitope ProLink (PK) and the other chain is tagged with Enzyme Acceptor (EA). Ligand binding induces dimerization of the two receptors, facilitating complementation of PK and EA fragments. This interaction generates an active unit of b-galactosidase, which is detected using a chemiluminescent substrate. PathHunter cell lines were expanded from freezer stocks according to standard procedures. Cells were seeded in a total volume of 20 μL into white walled, 384-well microplates and incubated for the appropriate time prior to testing. For agonist activity inhibition, cells were incubated with sample to induce response. Intermediate dilution of sample stocks was performed to generate 5× sample in assay buffer. 5 μL of 5× sample was added to cells and incubated at 37° C. or room temperature for 60 minutes. Vehicle concentration was 1%. 5 μL of 6×EC80 agonist (IL-17A) in assay buffer was added to the cells and incubated at 37° C. for 6 to 16 hours depending on the assay. 1. […] For some assays, activity was detected using a high sensitivity detection reagent (PathHunter Flash Kit) to improve assay performance. In these assays, an equal volume of detection reagent (25 or 30 uL) was added to the wells, followed by a one hour incubation at room temperature. Microplates were read following signal generation with a PerkinElmer Envision™ instrument for chemiluminescent signal detection. Compound activity was analyzed using CBIS data analysis suite (ChemInnovation, CA). % Inhibition=100%×(1−(mean RLU of test sample−mean RLU of vehicle control)/(mean RLU of EC80 control−mean RLU of vehicle control)).

Residues, ends and D or L forms follow the SMILES beside them. Bounds are passed on as bounds.

IL-17RA/IL17RC dimerization induced by IL-17A, sequence (Q16552 24-155): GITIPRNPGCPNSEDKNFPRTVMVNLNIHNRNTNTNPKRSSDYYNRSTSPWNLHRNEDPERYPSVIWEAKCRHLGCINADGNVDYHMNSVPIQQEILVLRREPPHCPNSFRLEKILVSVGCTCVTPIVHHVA

On to `CC[C@H](C)[C@H](NC(C)=O)C(=O)N[C@@H](Cc1c[nH]cn1)C(=O)N[C@H](C(=O)N[C@H](C(=O)N[C@H](C(=O)N1CCC[C@H]1C(=O)N[C@@H](C)C(=O)N[C@@H](CC(=O)O)C(=O)N[C@@H](CC(C)C)C(=O)N[C@@H](Cc1c[nH]c2ccccc12)C(=O)N[C@@H](CC(=O)O)C(=O)N[C@@H](Cc1c[nH]c2ccccc12)C(=O)N[C@H](C(=O)N[C@@H](CC(N)=O)C(=O)N[C@@H](CCCCN)C(N)=O)[C@@H](C)CC)[C@@H](C)CC)[C@@H](C)O)[C@@H](C)CC` [SEQ ID NO: 171] (Ac-IHITIPADLWDWINK-NH2), for which the IC50 was under 10 µM.

In the case of `CC[C@H](C)[C@H](NC(C)=O)C(=O)N[C@@H](Cc1c[nH]cn1)C(=O)N[C@H](C(=O)N[C@H](C(=O)N[C@@H](Cc1ccc(O)cc1)C(=O)N1CCC[C@H]1C(=O)N[C@@H](C)C(=O)N[C@@H](CC(=O)O)C(=O)N[C@@H](CC(C)C)C(=O)N[C@@H](Cc1c[nH]c2ccccc12)C(=O)N[C@@H](CC(=O)O)C(=O)N[C@@H](Cc1c[nH]c2ccccc12)C(=O)N[C@H](C(=O)N[C@@H](CC(N)=O)C(=O)N[C@@H](CCCCN)C(N)=O)[C@@H](C)CC)[C@@H](C)O)C(C)C` [SEQ ID NO: 185] (Ac-IHVTYPADLWDWINK-NH2), the IC50 was under 10 µM.

`CC[C@H](C)[C@H](NC(C)=O)C(=O)N[C@@H](Cc1c[nH]cn1)C(=O)N[C@H](C(=O)N[C@H](C(=O)N[C@H](C(=O)N1CCC[C@H]1C(=O)N[C@@H](C)C(=O)N[C@@H](CC(=O)O)C(=O)N[C@@H](CC(C)C)C(=O)N[C@@H](Cc1c[nH]c2ccccc12)C(=O)N[C@@H](CC(=O)O)C(=O)N[C@@H](Cc1c[nH]c2ccccc12)C(=O)N[C@H](C(=O)N[C@@H](CC(=O)O)C(=O)N[C@@H](CCCCN)C(N)=O)[C@@H](C)CC)[C@@H](C)CC)[C@@H](C)O)C(C)C` [SEQ ID NO: 221] (Ac-IHVTIPADLWDWIDK-NH2): the IC50 was under 10 µM.

Consider `CC[C@H](C)[C@H](NC(=O)[C@H](CCC(=O)O)NC(=O)[C@H](CCC(N)=O)NC(=O)[C@@H]1CCCN1C(=O)[C@@H](NC(=O)[C@H](CO)NC(=O)[C@H](Cc1ccccc1)NC(=O)[C@H](CCCNC(=N)N)NC(=O)[C@@H](NC(C)=O)C(C)C)C(C)C)C(=O)N[C@@H](Cc1ccc(O)cc1)C(=O)N[C@@H](CCC(=O)O)C(=O)N[C@@H](Cc1c[nH]c2ccccc12)C(=O)N[C@H](C(=O)N[C@@H](CCCNC(=N)N)C(=O)N[C@@H](CCCNC(=N)N)C(N)=O)C(C)C` [SEQ ID NO: 251] (Ac-VRFSVPQEIYEWVRR-NH2), for which the IC50 was under 10 µM.

For the compound `CC(=O)N[C@H](C(=O)N[C@@H](Cc1c[nH]cn1)C(=O)N[C@H](C(=O)N[C@H](C(=O)N[C@H](C(=O)N1CCC[C@H]1C(=O)N[C@@H](CCC(N)=O)C(=O)N[C@@H](CCC(=O)O)C(=O)N[C@@H](CC(C)C)C(=O)N[C@@H](Cc1ccccc1)C(=O)N[C@@H](CCC(=O)O)C(=O)N[C@@H](Cc1c[nH]c2ccccc12)C(=O)N[C@H](C(=O)N[C@@H](CCC(=O)O)C(=O)N[C@@H](CCC(=O)O)C(N)=O)C(C)C)C(C)C)[C@@H](C)O)C(C)C)C(C)C` [SEQ ID NO: 228] (Ac-VHVTVPQELFEWVEE-NH2), the IC50 is under 10 µM.

For `CC[C@H](C)[C@H](NC(=O)[C@@H](NC(=O)[C@@H](NC(=O)[C@H](Cc1c[nH]cn1)NC(=O)[C@@H](NC(C)=O)C(C)C)C(C)C)[C@@H](C)O)C(=O)N1CCC[C@H]1C(=O)N[C@@H](CCC(N)=O)C(=O)N[C@@H](CC(=O)O)C(=O)N[C@@H](Cc1ccccc1)C(=O)N[C@@H](Cc1c[nH]c2ccccc12)C(=O)N[C@@H](CCC(=O)O)C(=O)N[C@@H](Cc1c[nH]c2ccccc12)C(=O)N[C@@H](Cc1ccccc1)C(=O)N[C@@H](CCCNC(=N)N)C(=O)N[C@@H](CCCNC(=N)N)C(N)=O` [SEQ ID NO: 145] (Ac-VHVTIPQDFWEWFRR-NH2), the IC50 was under 0.5 µM.

Regarding `CC(=O)N[C@H](C(=O)N[C@@H](Cc1c[nH]cn1)C(=O)N[C@H](C(=O)N[C@H](C(=O)N[C@H](C(=O)N1CCC[C@H]1C(=O)N[C@@H](CCC(N)=O)C(=O)N[C@@H](CCC(=O)O)C(=O)N[C@@H](CC(C)C)C(=O)N[C@@H](Cc1ccc(O)cc1)C(=O)N[C@@H](CCC(=O)O)C(=O)N[C@@H](Cc1c[nH]c2ccccc12)C(=O)N[C@H](C(=O)N[C@@H](CCC(=O)O)C(=O)N[C@@H](CCC(=O)O)C(N)=O)C(C)C)C(C)C)[C@@H](C)O)C(C)C)C(C)C` [SEQ ID NO: 229] (Ac-VHVTVPQELYEWVEE-NH2), the IC50 is under 10 µM.

With `CC[C@H](C)[C@H](NC(C)=O)C(=O)N[C@@H](Cc1c[nH]cn1)C(=O)N[C@H](C(=O)N[C@H](C(=O)N[C@H](C(=O)N1CCC[C@H]1C(=O)N[C@@H](C)C(=O)N[C@@H](CC(=O)O)C(=O)N[C@@H](CC(C)C)C(=O)N[C@@H](Cc1c[nH]c2ccccc12)C(=O)N[C@@H](CC(=O)O)C(=O)N[C@@H](Cc1c[nH]c2ccccc12)C(=O)N[C@@H](CCCCN)C(=O)N[C@@H](CC(N)=O)C(=O)N[C@@H](CCCCN)C(N)=O)[C@@H](C)CC)[C@@H](C)O)C(C)C` [SEQ ID NO: 213] (Ac-IHVTIPADLWDWKNK-NH2), the IC50 is under 10 µM.

Consider `CC(=O)N[C@H](C(=O)N[C@@H](Cc1c[nH]cn1)C(=O)N[C@@H](Cc1ccccc1)C(=O)N[C@@H](CCC(N)=O)C(=O)N[C@@H](Cc1ccccc1)C(=O)N1CCC[C@H]1C(=O)N[C@@H](CCC(N)=O)C(=O)N[C@@H](CC(=O)O)C(=O)N[C@@H](CC(C)C)C(=O)N[C@@H](Cc1c[nH]c2ccccc12)C(=O)N[C@@H](CCC(=O)O)C(=O)N[C@@H](Cc1c[nH]c2ccccc12)C(=O)N[C@H](C(=O)N[C@@H](CCCNC(=N)N)C(=O)N[C@@H](CCCNC(=N)N)C(N)=O)C(C)C)C(C)C` [SEQ ID NO: 150] (Ac-VHFQFPQDLWEWVRR-NH2), for which the IC50 was under 0.5 µM.

On to `CC(=O)N[C@H](C(=O)N[C@@H](Cc1c[nH]cn1)C(=O)N[C@@H](Cc1ccccc1)C(=O)N[C@@H](CCC(N)=O)C(=O)N[C@@H](Cc1ccccc1)C(=O)N1CCC[C@H]1C(=O)N[C@@H](C)C(=O)N[C@@H](CC(=O)O)C(=O)N[C@@H](Cc1ccccc1)C(=O)N[C@@H](Cc1c[nH]c2ccccc12)C(=O)N[C@@H](CCC(=O)O)C(=O)N[C@@H](Cc1c[nH]c2ccccc12)C(=O)N[C@H](C(=O)N[C@@H](CCCNC(=N)N)C(=O)N[C@@H](CCCNC(=N)N)C(N)=O)C(C)C)C(C)C` [SEQ ID NO: 131] (Ac-VHFQFPADFWEWVRR-NH2), for which the IC50 is under 0.5 µM.

Turning to `CC[C@H](C)[C@H](NC(C)=O)C(=O)N[C@@H](Cc1c[nH]cn1)C(=O)N[C@H](C(=O)N[C@H](C(=O)N[C@H](C(=O)N1CCC[C@H]1C(=O)N[C@@H](CC(C)C)C(=O)N[C@@H](CCC(=O)O)C(=O)N[C@H](C(=O)N[C@@H](Cc1ccccc1)C(=O)N[C@@H](CCC(=O)O)C(=O)N[C@@H](Cc1c[nH]c2ccccc12)C(=O)N[C@@H](CC(C)C)C(=O)N[C@@H](CCC(N)=O)C(=O)N[C@@H](CCCNC(=N)N)C(N)=O)[C@@H](C)CC)[C@@H](C)CC)[C@@H](C)O)C(C)C` [SEQ ID NO: 248] (Ac-IHVTIPLEIFEWLQR-NH2), the IC50 is under 10 µM.

Regarding `CC(=O)N[C@H](C(=O)N[C@@H](Cc1c[nH]cn1)C(=O)N[C@H](C(=O)N[C@@H](CO)C(=O)N[C@H](C(=O)N1CCC[C@H]1C(=O)N[C@@H](CCC(N)=O)C(=O)N[C@@H](CCC(=O)O)C(=O)N[C@@H](CC(C)C)C(=O)N[C@@H](Cc1c[nH]c2ccccc12)C(=O)N[C@@H](CCC(=O)O)C(=O)N[C@@H](Cc1c[nH]c2ccccc12)C(=O)N[C@H](C(=O)N[C@@H](CCCNC(=N)N)C(=O)N[C@@H](CCCNC(=N)N)C(N)=O)C(C)C)C(C)C)C(C)C)C(C)C` [SEQ ID NO: 231] (Ac-VHVSVPQELWEWVRR-NH2), the IC50 is under 10 µM.

Turning to `CC(=O)N[C@H](C(=O)N[C@@H](Cc1c[nH]cn1)C(=O)N[C@@H](Cc1ccccc1)C(=O)N[C@H](C(=O)N[C@@H](Cc1ccccc1)C(=O)N1CCC[C@H]1C(=O)N[C@@H](CCC(N)=O)C(=O)N[C@@H](CC(=O)O)C(=O)N[C@@H](CC(C)C)C(=O)N[C@@H](Cc1c[nH]c2ccccc12)C(=O)N[C@@H](CCC(=O)O)C(=O)N[C@@H](Cc1ccccc1)C(=O)N[C@H](C(=O)N[C@@H](CCCNC(=N)N)C(=O)N[C@@H](CCCNC(=N)N)C(N)=O)C(C)C)[C@@H](C)O)C(C)C` [SEQ ID NO: 128] (Ac-VHFTFPQDLWEFVRR-NH2), the IC50 was under 0.5 µM.

As to `CC[C@H](C)[C@H](NC(=O)[C@@H](NC(=O)[C@@H](NC(=O)[C@H](Cc1c[nH]cn1)NC(=O)[C@@H](NC(C)=O)C(C)C)C(C)C)[C@@H](C)O)C(=O)N1CCC[C@H]1C(=O)N[C@@H](C)C(=O)N[C@@H](CC(=O)O)C(=O)N[C@@H](CC(C)C)C(=O)N[C@@H](Cc1ccc(O)cc1)C(=O)N[C@@H](CCC(=O)O)C(=O)N[C@@H](Cc1c[nH]c2ccccc12)C(=O)N[C@H](C(=O)N[C@@H](CCCNC(=N)N)C(=O)N[C@@H](CCCNC(=N)N)C(N)=O)C(C)C` [SEQ ID NO: 118] (Ac-VHVTIPADLYEWVRR-NH2), the IC50 was under 0.5 µM.
